Calls of active or inactive are those of the source. The calls are words filed in the database; no cut-off is given here.
Legend:
Leishmania donovani = assay: In vitro inhibitory activity against Leishmania donovani; Inactive; type: functional, organism-based
Trypanosoma brucei [1] = assay: In vitro inhibitory activity against Trypanosoma brucei; type: functional, organism-based
Trypanosoma brucei [2] = assay: In vitro inhibitory activity against Trypanosoma brucei; Inactive; type: functional, organism-based
Trypanosoma cruzi = assay: In vitro inhibitory activity against growth of Trypanosoma cruzi at a concentration of 30 uM; 20-40%; type: functional; settings: read-out: GI

Row | IC50 (Trypanosoma brucei [1]) | IC50 (Trypanosoma brucei [2]) | SMILES | Activity (Leishmania donovani) | inhibition of growth at 30 µM (Trypanosoma cruzi)
1 | 7 µM | – | CC(=O)OCC(CO)OC(COC(C)=O)n1cnc2c(N)ncnc21 (stereo unspecified) | inactive | –
2 | – | ≥ 100 µM | Nc1ncnc2c1ncn2C(CO)OC(CO)CO (stereo unspecified) | inactive | –
3 | 5.4 µM | – | CC(=O)OCC(COC(C)=O)OC(COC(C)=O)n1cnc2c(O)ncnc21 (stereo unspecified) | inactive | –
4 | – | ≥ 100 µM | OCC(CO)OC(CO)n1cnc2c(O)ncnc21 (stereo unspecified) | inactive | –
5 | – | – | CCC(CO)OC(CO)n1cnc2c(N)ncnc21 (stereo unspecified) | inactive | 40%
6 | – | ≥ 100 µM | Nc1ncnc2c1ncn2C(CO)OC(CO)CSCCO (stereo unspecified) | inactive | –
7 | 5.3 µM | – | CC(=O)OCCSCC(COC(C)=O)OC(COC(C)=O)n1cnc2c(N)ncnc21 (stereo unspecified) | inactive | –
8 | – | – | Nc1ncnc2c1ncn2C(CO)OC(CO)CCl (stereo unspecified) | inactive | 40%

— ChEMBL document CHEMBL1150000, “Purine 2, 3-acyclonucleosides: Improved synthesis and antiparasitic actimity” (Bioorg Med Chem Lett, 1995)
